Measurements as given in paper PMC6135396, “Repurposing antimalarial aminoquinolines and related compounds for treatment of retinal neovascularization” (PLoS ONE, 2018).

Experiments:
[1] = Hepatic microsome stability, human; assay type: in vitro ADME; conditions: liver microsomes, pH 7.4, terminal half-life of a two-phase exponential decay, read-out: Hepatic microsome stability T1/2
Method: (§1) Hepatic microsomes stability assays were performed as reported before. […] After preincubation at 37°C for 10 min, enzyme reactions were initiated by adding 120 μL of NADPH-generating system (2 mM NADP^+, 10 mM glucose-6-phosphate, 0.4 U/ml glucose-6-phosphate dehydrogenase, and 5 mM MgCl2) in the presence of 100 mM potassium phosphate buffer (pH 7.4). The final concentration of each model compound used was 1 μM. The microsomal concentrations used were 1.0 mg/mL. Compounds were incubated in microsomes for 0, 5, 15, 30 and 60 min. The reactions were stopped by the addition of ice cold ACN and the reaction mixtures were centrifuged at 10,000g for 10 min before the supernatant was removed for analysis.
(§2) Except for the primary assay in the HTS campaign, all experiments were repeated at least three times. Results are expressed as mean ± SEM. The Mann-Whitney test was used to determine statistical significance of the densitometry data of Western blot analysis. Unpaired two-tailed Student’s t-test was performed for the significance of the results of ELISA and in vitro tubule formation assay. ANOVA was used to determine the significance in vivo CNV models using the Tukey post-hoc test for multiple comparisons. […] T1/2 was calculated using the best fit curve resulting from non-linear (human) or linear (mouse and rat) regression analyses using Prism 7.

LogD (pH 7.4) = assay type: physicochemical
[2] = Hepatic microsome stability, mouse; assay type: in vitro ADME; conditions: liver microsomes, pH 7.4, single phase, read-out: Hepatic microsome stability T1/2
Method: as §1, §2

APJ [3] = target: T1, APJ (Homo sapiens, UniProt P35414); experiment: Radioligand competition binding assay, [125I]-Glp65, Nle75, Tyr77-Ap13 on APJ membranes; set-up: purchased Perkin Elmer; conditions: tested as high as 100 μM
T1 sequence (P35414 1-380): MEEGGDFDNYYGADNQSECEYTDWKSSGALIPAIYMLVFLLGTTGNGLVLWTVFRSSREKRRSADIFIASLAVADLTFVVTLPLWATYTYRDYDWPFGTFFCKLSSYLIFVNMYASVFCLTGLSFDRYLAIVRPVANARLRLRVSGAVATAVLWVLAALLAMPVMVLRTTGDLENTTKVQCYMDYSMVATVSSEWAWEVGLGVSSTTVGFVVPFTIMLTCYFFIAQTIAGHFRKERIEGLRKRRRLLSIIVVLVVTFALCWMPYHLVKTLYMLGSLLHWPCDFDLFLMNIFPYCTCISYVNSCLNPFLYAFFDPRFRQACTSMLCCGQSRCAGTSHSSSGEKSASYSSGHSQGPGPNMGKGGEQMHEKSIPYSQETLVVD
Method: Soaking buffer (300 μl/well) was added to a 96-well GF/C filter plate (MultiScreen Harvest plate, Millipore) and left to equilibrate at room temperature for 3 h. […] Following incubation, contents were transferred from the OptiPlate to the pre-wet GF/C filter plate, and immediately underwent vacuum filtration. The filter plate was washed five times with 200 μl ice cold wash buffer and left at room temperature overnight to equilibrate. The next day, 20 μl scintillation liquid (Microscint 20, Perkin Elmer) was added and radioactivity quantified using a TopCount NXT (Perkin Elmer) microplate scintillation and luminescence counter. […] The Cheng & Prusoff equation was used to convert IC50 estimates to equilibrium dissociation constants [89].

Plasma stability, rat = assay type: in vitro ADME
[4] = Plasma-protein binding, rat; assay type: in vitro ADME
APJ [5] = target: T1, APJ; experiment: APJ β-arrestin recruitment assay (PathHunter, CHO-K1-APJ); assay type: cell-based; set-up: β-galactosidase enzyme fragment (enzyme fragment complementation construct); host or cells: CHO-K1 (CHO-K1-APJ, PathHunter)
Method: PathHunter™ GPCR Arrestin and cAMP Hunter™ cell lines (DiscoveRx Corp., Fremont, CA) were used to assay G-protein-dependent signaling and β-arrestin recruitment to APJ. CHO-K1 cells stably expressing APJ (CHO-K1-APJ) or AT1 (CHO-K1-AT1) with β-arrestin/β-galactosidase enzyme fragment complementation constructs were maintained in HAM's F-12 medium (Hyclone, Logan, UT) supplemented with 10% FBS, 1X Penicillin-Streptomycin-Glutamine (Invitrogen; Carlsbad, CA), 300 μg/ml hygromycin (EMD Biosciences, San Diego, CA), and 800 μg/ml Geneticin (Cellgro, Manassas, VA). Primary Human Retinal Microvascular Endothelial Cells (HRECs) were purchased from Cell Systems (Kirkland, WA) and maintained in Complete Classic Medium with CultureBoost-R™ (Cell Systems). Parent CHO-K1 cells were obtained from ATCC and maintained in HAM’s F-12 medium supplemented with 10% FBS, and1X Penicillin-Streptomycin-Glutamine (Invitrogen; Carlsbad, CA). All cells were incubated at 37°C (5% CO2, 95% relative humidity) and maintained at less than 70% to 80% confluence (approximately 75,000 cells/cm^2). Cell heterologously expressing APJ or AT1 were not used after 10 passages. HRECs were not used in any experiments after five passages.
CHO-K1 cells engineered to over-express APJ or AT1, and β-arrestin were removed from flasks using TrypLE Select (1X), no phenol red (Life Technologies, Grand Island, NY), centrifuged, and resuspended in CP2 Reagent (DiscoveRx, Fremont, CA). Cells were counted using a Countess Automated Cell Counter (Invitrogen, Carlsbad, CA) and 5,000 cells/well were plated in a 384-well tissue culture treated microplate (Corning, Corning, NY). All plates were incubated overnight at 37°C, 5% CO2 in a final volume of 25 μl/well. Following incubation, 5 μl of peptides (10-point concentrations) and controls prepared in ligand buffer (1X HBSS, 10 mM HEPES, 0.1% BSA) were added to cells and incubated at 37°C for 1.5 h. Using a Multidrop Combi Reagent Dispenser (Thermo Scientific), 12 μl of Detection Reagent (DiscoveRx) comprised of substrate and co-factors was added to all wells and incubated at room temperature in the dark for 1 h. Chemiluminescent signal was detected on an EnVision Multi-label plate reader (Perkin Elmer) using a counting time of 1 s/well. The robustness of data from each screening plate and run was monitored by Z’ and Signal Window calculation.

[6] = Plasma-protein binding, human; assay type: in vitro ADME

Compound `CCN(CC)Cc1cc(Nc2ccnc3cc(Cl)ccc23)ccc1O` [AQ, amodiaquine] has a half-life at 1 μM [1] of 17 min, a logD (LogD (pH 7.4)) of 2.37 and a half-life at 1 μM [2] of 39.8 min. The “Displacement of [125I]-Glp65, Nle75, Tyr7-Ap13 binding” value (APJ [3]) was “did not displace”, the Plasma stability (Plasma stability, rat) was 46.3 % remaining at 3 hrs and the Plasma-protein binding ([4]; 1 μM) was 75.3 % bound. The Plasma-protein binding ([4]; 10 μM) was 76.8 % bound, the “Antagonism of Ap13-mediated recruitment of β-arrestin” value (APJ [5]) was “neither AQ nor 1, 3, 4, 5, or 6 antagonized” and the IC50 (APJ [5]; secondary assay, Ap13-mediated β-arrestin recruitment) was greater than 99 µM. The Plasma-protein binding ([6]; 1 μM) was 88.2 % bound and the Plasma-protein binding ([6]; 10 μM) was 83.8 % bound.
